Test results: the NIST ThermoML archive (doi:10.1016/j.jct.2013.05.040)

How the values were obtained:
[1] = xn = mol fraction of the nth substance listed; settings: Liquid; for viscosity: Moving piston method; for mass density: Vibrating tube method
[2] = Liquid; for mass density: Vibrating tube method; for viscosity: 101.33 kPa, Moving piston method

CC(C)O [propan-2-ol] + O=C=O
[1]
Settings | mass density, 302.8 K [kg/m3] | mass density, 323.1 K [kg/m3] | viscosity, 302.8 K [mPa·s] | viscosity, 323.1 K [mPa·s]
980 kPa, x2 = 0.047 | – | 762.7 | – | 0.895
990 kPa, x2 = 0.062 | 783.8 | – | 1.365 | –
1960 kPa, x2 = 0.102 | – | 767.2 | – | 0.743
2000 kPa, x2 = 0.133 | 791 | – | 1.108 | –
2950 kPa, x2 = 0.164 | – | 771.5 | – | 0.657
2980 kPa, x2 = 0.212 | 798.5 | – | 0.895 | –
3930 kPa, x2 = 0.23 | – | 776.1 | – | 0.538
3970 kPa, x2 = 0.304 | 807.3 | – | 0.604 | –
4930 kPa, x2 = 0.305 | – | 780.3 | – | 0.394
5940 kPa, x2 = 0.391 | – | 783.7 | – | 0.321

CC [ethane] + CC(C)O
[1]
Settings | mass density, 302.9 K [kg/m3] | mass density, 323.1 K [kg/m3] | viscosity, 302.9 K [mPa·s] | viscosity, 323.1 K [mPa·s]
910 kPa, x1 = 0.057 | – | 741.3 | – | 0.882
1030 kPa, x1 = 0.09 | 751.2 | – | 1.251 | –
1990 kPa, x1 = 0.141 | – | 716.3 | – | 0.663
2030 kPa, x1 = 0.199 | 718.5 | – | 0.919 | –
2970 kPa, x1 = 0.227 | – | 688.2 | – | 0.471
3040 kPa, x1 = 0.347 | 669.3 | – | 0.526 | –
3650 kPa, x1 = 0.47 | 623 | – | 0.246 | –
3970 kPa, x1 = 0.334 | – | 650.6 | – | 0.338
4940 kPa, x1 = 0.478 | – | 593.7 | – | 0.217
5620 kPa, x1 = 0.644 | – | 515.7 | – | 0.131

C [methane] + CC(C)O
[1]
Settings | mass density, 302.8 K [kg/m3] | mass density, 323.1 K [kg/m3] | viscosity, 302.8 K [mPa·s] | viscosity, 323.1 K [mPa·s]
980 kPa, x1 = 0.018 | – | 754.5 | – | 0.908
1070 kPa, x1 = 0.019 | 771.2 | – | 1.523 | –
2020 kPa, x1 = 0.033 | – | 750 | – | 0.847
2080 kPa, x1 = 0.037 | 767.2 | – | 1.403 | –
3080 kPa, x1 = 0.049 | – | 745 | – | 0.8
3190 kPa, x1 = 0.055 | 761.2 | – | 1.339 | –
4080 kPa, x1 = 0.065 | – | 740.7 | – | 0.74
4080 kPa, x1 = 0.069 | 756.5 | – | 1.262 | –
4980 kPa, x1 = 0.078 | – | 736.9 | – | 0.717
5080 kPa, x1 = 0.085 | 753.3 | – | 1.208 | –
6040 kPa, x1 = 0.093 | – | 732.3 | – | 0.676
6060 kPa, x1 = 0.1 | 748.9 | – | 1.129 | –

CC(C)O [propan-2-ol]
mass density [kg/m3], [2]
Settings | 302.9 K | 323 K
1000 kPa | – | 760.6
1040 kPa | 778.1 | –
2000 kPa | 778.9 | –
2020 kPa | – | 761.6
2990 kPa | 779.8 | –
3000 kPa | – | 762.7
4060 kPa | 780.8 | –
4070 kPa | – | 763.7
5000 kPa | – | 764.7
5010 kPa | 781.6 | –
6000 kPa | 782.5 | –
6010 kPa | – | 765.7
7020 kPa | 783.4 | 766.7
8010 kPa | – | 767.7
8020 kPa | 784.3 | –
9000 kPa | 785.1 | –
9010 kPa | – | 768.6
10000 kPa | 786 | –
10020 kPa | – | 769.6

[2]
Settings | viscosity [mPa·s]
303.3 K | 1.716
323.2 K | 0.973
